From patent publication US9611267B2, “Substituted tricyclic compounds as FGFR inhibitors” (Incyte Corporation, priority 2012, dated 2017)

Key:
Type in all cases: biochemical
FGFR1 = FGFR1 (Homo sapiens (Human), UniProt P11362); assay: FGFR enzymatic assay (FRET peptide phosphorylation), FGFR1; conditions: FGFR1 enzyme 0.02 nM, ATP 210 μM
Protocol: (§1) The inhibitor potency of the exemplified compounds was measured in an enzyme assay that measures peptide phosphorylation using FRET measurements to detect product formation. Inhibitors were serially diluted in DMSO and a volume of 0.5 μL was transferred to the wells of a 384-well plate. For FGFR3, a 10 μL volume of FGFR3 enzyme (Millipore) diluted in assay buffer (50 mM HEPES, 10 mM MgCl2, 1 mM EGTA, 0.01% Tween-20, 5 mM DTT, pH 7.5) was added to the plate and pre-incubated for 5-10 minutes. Appropriate controls (enzyme blank and enzyme with no inhibitor) were included on the plate. […] The plate was incubated at 25° C. for 1 hr. […] The plate was allowed to equilibrate for ˜1 hr before scanning the wells on a PheraStar plate reader (BMG Labtech).
(§2) The enzymes were purchased from Millipore or Invitrogen.
(§3) GraphPad prism3 was used to analyze the data. The IC50 values were derived by fitting the data to the equation for a sigmoidal dose-response with a variable slope. Y=Bottom+(Top−Bottom)/(1+10^((LogIC50−X)*HillSlope)) where X is the logarithm of concentration and Y is the response.

FGFR3 = FGFR3 (Homo sapiens (Human), UniProt P22607); assay: FGFR enzymatic assay (FRET peptide phosphorylation), FGFR3; conditions: FGFR3 enzyme (Millipore), ATP 140 μM
Protocol: as §1, §3

FGFR2 = FGFR2 (Homo sapiens (Human), UniProt P21802); assay: FGFR enzymatic assay (FRET peptide phosphorylation), FGFR2; conditions: FGFR2 enzyme 0.01 nM, ATP 100 μM
Protocol: as §1, §2, §3

FGFR2, sequence (P21802 22-821): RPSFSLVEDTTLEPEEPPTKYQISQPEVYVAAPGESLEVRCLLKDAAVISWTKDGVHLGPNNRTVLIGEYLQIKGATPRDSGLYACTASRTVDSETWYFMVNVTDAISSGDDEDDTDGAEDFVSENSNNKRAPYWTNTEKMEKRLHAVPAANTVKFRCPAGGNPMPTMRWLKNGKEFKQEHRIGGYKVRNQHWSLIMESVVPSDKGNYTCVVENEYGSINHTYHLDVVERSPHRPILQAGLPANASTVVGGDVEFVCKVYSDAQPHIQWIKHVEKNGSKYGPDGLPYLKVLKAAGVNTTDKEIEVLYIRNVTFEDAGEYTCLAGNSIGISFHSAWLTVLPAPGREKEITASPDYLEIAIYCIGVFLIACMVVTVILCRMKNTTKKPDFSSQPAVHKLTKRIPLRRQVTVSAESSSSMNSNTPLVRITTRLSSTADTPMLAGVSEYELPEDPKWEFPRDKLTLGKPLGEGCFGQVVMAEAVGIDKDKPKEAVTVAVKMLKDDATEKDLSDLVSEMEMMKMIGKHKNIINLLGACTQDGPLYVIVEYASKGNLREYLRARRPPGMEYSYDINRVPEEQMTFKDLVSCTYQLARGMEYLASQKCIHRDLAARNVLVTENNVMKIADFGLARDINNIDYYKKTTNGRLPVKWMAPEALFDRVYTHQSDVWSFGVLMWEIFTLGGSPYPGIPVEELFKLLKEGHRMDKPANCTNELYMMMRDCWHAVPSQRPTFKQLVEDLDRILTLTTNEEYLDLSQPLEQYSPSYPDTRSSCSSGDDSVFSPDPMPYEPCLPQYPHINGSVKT
FGFR1, sequence (P11362 22-822): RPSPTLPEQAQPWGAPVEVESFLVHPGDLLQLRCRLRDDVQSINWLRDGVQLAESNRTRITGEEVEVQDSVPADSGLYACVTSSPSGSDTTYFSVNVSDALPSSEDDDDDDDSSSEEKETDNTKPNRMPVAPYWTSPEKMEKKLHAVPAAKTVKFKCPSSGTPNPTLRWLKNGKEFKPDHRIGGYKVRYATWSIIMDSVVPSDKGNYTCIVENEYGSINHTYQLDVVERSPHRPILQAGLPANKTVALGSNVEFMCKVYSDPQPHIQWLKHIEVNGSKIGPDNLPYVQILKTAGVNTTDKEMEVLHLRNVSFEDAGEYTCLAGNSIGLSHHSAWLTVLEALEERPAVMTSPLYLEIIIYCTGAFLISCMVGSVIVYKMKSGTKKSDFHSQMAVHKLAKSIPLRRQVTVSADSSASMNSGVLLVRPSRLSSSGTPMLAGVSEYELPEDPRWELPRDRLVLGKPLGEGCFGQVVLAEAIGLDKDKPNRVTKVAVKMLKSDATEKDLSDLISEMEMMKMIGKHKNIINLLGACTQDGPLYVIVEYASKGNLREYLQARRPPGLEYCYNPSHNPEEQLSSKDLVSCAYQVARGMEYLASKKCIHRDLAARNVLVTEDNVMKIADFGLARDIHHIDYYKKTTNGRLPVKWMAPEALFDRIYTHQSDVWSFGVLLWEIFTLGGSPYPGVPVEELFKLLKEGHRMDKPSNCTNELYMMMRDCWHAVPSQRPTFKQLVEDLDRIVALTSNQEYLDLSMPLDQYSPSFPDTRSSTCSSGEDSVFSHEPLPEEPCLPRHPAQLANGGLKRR
FGFR3, sequence (P22607 23-806): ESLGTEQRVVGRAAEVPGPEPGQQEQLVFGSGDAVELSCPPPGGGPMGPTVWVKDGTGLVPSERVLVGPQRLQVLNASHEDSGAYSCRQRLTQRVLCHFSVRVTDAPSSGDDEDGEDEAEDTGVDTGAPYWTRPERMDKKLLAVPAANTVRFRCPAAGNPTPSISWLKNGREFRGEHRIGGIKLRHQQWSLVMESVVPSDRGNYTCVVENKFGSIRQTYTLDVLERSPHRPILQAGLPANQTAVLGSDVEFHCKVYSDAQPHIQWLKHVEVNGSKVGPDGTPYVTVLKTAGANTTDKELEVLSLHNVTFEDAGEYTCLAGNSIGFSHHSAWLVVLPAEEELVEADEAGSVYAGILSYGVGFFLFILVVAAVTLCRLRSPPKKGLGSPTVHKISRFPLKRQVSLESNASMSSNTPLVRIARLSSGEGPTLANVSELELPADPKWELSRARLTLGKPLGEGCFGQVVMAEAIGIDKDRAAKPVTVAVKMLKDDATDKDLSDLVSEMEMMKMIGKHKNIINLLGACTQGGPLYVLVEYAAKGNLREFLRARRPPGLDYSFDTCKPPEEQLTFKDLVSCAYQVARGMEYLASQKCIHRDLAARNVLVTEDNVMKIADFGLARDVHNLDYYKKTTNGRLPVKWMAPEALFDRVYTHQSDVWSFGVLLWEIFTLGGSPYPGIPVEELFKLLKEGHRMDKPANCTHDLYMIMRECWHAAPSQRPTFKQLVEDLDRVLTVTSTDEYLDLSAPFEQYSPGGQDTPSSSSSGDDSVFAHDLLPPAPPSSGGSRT

SMILES	IC50 (FGFR1)	IC50 (FGFR3)	IC50 (FGFR2)
COc1cc(OC)c(F)c(N2Cc3cnc4[nH]nc(C#N)c4c3N(C)C2=O)c1F [Example 53, 3-(2,6-Difluoro-3,5-dimethoxyphenyl)-1-methyl-2-oxo-2,3,4,7-tetrahydro-1H-pyrazolo[4′,3′:5,6]pyrido[4,3-d]pyrimidine-9-carbonitrile]	< 100 nM	< 100 nM	< 100 nM
COc1cc(OC)c(F)c(N2Cc3cnc4[nH]nc(CC#N)c4c3N(C)C2=O)c1F [Example 54, [3-(2,6-Difluoro-3,5-dimethoxyphenyl)-1-methyl-2-oxo-2,3,4,7-tetrahydro-1H-pyrazolo[4′,3′:5,6]pyrido[4,3-d]pyrimidin-9-yl]acetonitrile]	< 100 nM	< 100 nM	< 100 nM
COc1cc(OC)c(F)c(N2Cc3cnc4[nH]nc(C5CCN(C)CC5)c4c3N(C)C2=O)c1F [Example 55, 3-(2,6-Difluoro-3,5-dimethoxyphenyl)-1-methyl-9-(1-methylpiperidin-4-yl)-1,3,4,7-tetrahydro-2H-pyrazolo[4′,3′:5,6]pyrido[4,3-d]pyrimidin-2-one]	< 100 nM	< 100 nM	< 100 nM
COc1cc(OC)c(F)c(N2Cc3cnc4[nH]nc(CCO)c4c3N(C)C2=O)c1F [Example 56, 3-(2,6-Difluoro-3,5-dimethoxyphenyl)-9-(2-hydroxyethyl)-1-methyl-1,3,4,7-tetrahydro-2H-pyrazolo[4′,3′:5,6]pyrido[4,3-d]pyrimidin-2-one]	< 100 nM	< 100 nM	< 100 nM
CCN1C(=O)N(c2c(F)c(OC)cc(OC)c2F)Cc2cnc3[nH]ncc3c21 [Example 57, 3-(2,6-Difluoro-3,5-dimethoxyphenyl)-1-ethyl-1,3,4,7-tetrahydro-2H-pyrazolo[4′,3′:5,6]pyrido[4,3-d]pyrimidin-2-one]	< 100 nM	< 100 nM	< 100 nM
COc1cc(OC)c(F)c(N2Cc3cnc4[nH]ncc4c3N(CCO)C2=O)c1F [Example 58, 3-(2,6-Difluoro-3,5-dimethoxyphenyl)-1-(2-hydroxyethyl)-1,3,4,7-tetrahydro-2H-pyrazolo[4′,3′:5,6]pyrido[4,3-d]pyrimidin-2-one]	< 100 nM	< 100 nM	< 100 nM
COc1cc(OC)c(F)c(N2Cc3cnc4[nH]ccc4c3CC2=O)c1F [Example 60, 7-(2,6-difluoro-3,5-dimethoxyphenyl)-3,6,7,9-tetrahydro-8H-pyrrolo[2,3-c]-2,7-naphthyridin-8-one]	< 100 nM	< 100 nM	< 100 nM
COc1cc(OC)c(F)c(N2Cc3cnc4[nH]cnc4c3N(C)C2=O)c1F [Example 61, 7-(2,6-difluoro-3,5-dimethoxyphenyl)-9-methyl-3,6,7,9-tetrahydro-8H-imidazo[4′,5′:5,6]pyrido[4,3-d]pyrimidin-8-one]	< 100 nM	< 100 nM	< 100 nM
COc1cc(OC)c(F)c(N2Cc3cnc4[nH]ncc4c3OC2=O)c1F [Example 62, 3-(2,6-difluoro-3,5-dimethoxyphenyl)-4,7-dihydropyrazolo[4′,3′:5,6]pyrido[3,4-e][1,3]oxazin-2(3H)-one]	100 to 500 nM	< 100 nM	100 to 500 nM
COc1cc(OC)c(F)c(N2Cc3cnc4c(c3N(C3CCC3)C2=O)CC(=O)N4)c1F [Example 64, 1-cyclobutyl-3-(2,6-difluoro-3,5-dimethoxyphenyl)-3,4,7,9-tetrahydro-1H-pyrrolo[3′,2′:5,6]pyrido[4,3-d]pyrimidine-2,8-dione]	< 100 nM	< 100 nM	< 100 nM
COc1cc(OC)c(F)c(N2Cc3cnc4c(c3N(Cc3cccc(F)c3)C2=O)CC(=O)N4)c1F [Example 65, 3-(2,6-difluoro-3,5-dimethoxyphenyl)-1-(3-fluorobenzyl)-3,4,7,9-tetrahydro-1H-pyrrolo[3′,2′:5,6]pyrido[4,3-d]pyrimidine-2,8-dione]	< 100 nM	< 100 nM	< 100 nM
COc1cc(OC)c(F)c(N2Cc3cnc4[nH]ccc4c3C3(CC3)C2=O)c1F [Example 66, 7′-(2,6-difluoro-3,5-dimethoxyphenyl)-6′,7′-dihydrospiro[cyclopropane-1,9′-pyrrolo[2,3-c][2,7]naphthyridin]-8′(3′H)-one]	< 100 nM	< 100 nM	< 100 nM
COc1cc(OC)c(F)c(N2Cc3cnc4[nH]ccc4c3C(C)(C)C2=O)c1F [Example 67, 7-(2,6-difluoro-3,5-dimethoxyphenyl)-9,9-dimethyl-3,6,7,9-tetrahydro-8H-pyrrolo[2,3-c]-2,7-naphthyridin-8-one]	< 100 nM	< 100 nM	< 100 nM
COc1cc(OC)c(F)c(N2Cc3cnc4c(c3N(c3ccc(Cl)cc3F)C2=O)CC(=O)N4)c1F [Example 68, 1-(4-chloro-2-fluorophenyl)-3-(2,6-difluoro-3,5-dimethoxyphenyl)-3,4,7,9-tetrahydro-1H-pyrrolo[3′,2′:5,6]pyrido[4,3-d]pyrimidine-2,8-dione]	< 100 nM	< 100 nM	< 100 nM
CCN1CCN(c2ccc(-c3n[nH]c4ncc5c(c34)N(C)C(=O)N(c3c(F)c(OC)cc(OC)c3F)C5)cc2)CC1 [Example 69, 3-(2,6-difluoro-3,5-dimethoxyphenyl)-9-[4-(4-ethylpiperazin-1-yl)phenyl]-1-methyl-1,3,4,7-tetrahydro-2H-pyrazolo[4′,3′:5,6]pyrido[4,3-d]pyrimidin-2-one]	< 100 nM	< 100 nM	< 100 nM
CCN1CCN(Cc2cc3c4c(cnc3[nH]2)CN(c2c(F)c(OC)cc(OC)c2F)C(=O)N4C)CC1 [Example 70, 3-(2,6-difluoro-3,5-dimethoxyphenyl)-8-[(4-ethylpiperazin-1-yl)methyl]-1-methyl-1,3,4,7-tetrahydro-2H-pyrrolo[3′,2′:5,6]pyrido[4,3-d]pyrimidin-2-one]	< 100 nM	< 100 nM	< 100 nM
CCN1CCN(CCc2cc3c4c(cnc3[nH]2)CN(c2c(F)c(OC)cc(OC)c2F)C(=O)N4C)CC1 [Example 71, 3-(2,6-difluoro-3,5-dimethoxyphenyl)-8-[2-(4-ethylpiperazin-1-yl)ethyl]-1-methyl-1,3,4,7-tetrahydro-2H-pyrrolo[3′,2′:5,6]pyrido[4,3-d]pyrimidin-2-one]	< 100 nM	< 100 nM	< 100 nM
CCN1CCN(CCCc2cc3c4c(cnc3[nH]2)CN(c2c(F)c(OC)cc(OC)c2F)C(=O)N4C)CC1 [Example 72, 3-(2,6-difluoro-3,5-dimethoxyphenyl)-8-[3-(4-ethylpiperazin-1-yl)propyl]-1-methyl-1,3,4,7-tetrahydro-2H-pyrrolo[3′,2′:5,6]pyrido[4,3-d]pyrimidin-2-one]	< 100 nM	< 100 nM	< 100 nM
CCN1CCC(Cc2cc3c4c(cnc3[nH]2)CN(c2c(F)c(OC)cc(OC)c2F)C(=O)N4C)CC1 [Example 73, 3-(2,6-difluoro-3,5-dimethoxyphenyl)-8-[(1-ethylpiperidin-4-yl)methyl]-1-methyl-1,3,4,7-tetrahydro-2H-pyrrolo[3′,2′:5,6]pyrido[4,3-d]pyrimidin-2-one]	< 100 nM	< 100 nM	< 100 nM
COc1cc(OC)c(F)c(N2Cc3cnc4[nH]ccc4c3N([C@@H]3CCC[C@H]3O)C2=O)c1F [Example 74, 3-(2,6-difluoro-3,5-dimethoxyphenyl)-1-[(1R,2R)-2-hydroxycyclopentyl]-1,3,4,7-tetrahydro-2H-pyrrolo[3′,2′:5,6]pyrido[4,3-d]pyrimidin-2-one]	< 100 nM	< 100 nM	< 100 nM
COc1cc(OC)c(F)c(N2Cc3cnc4c(c3N([C@@H]3CCC[C@H]3O)C2=O)CC(=O)N4)c1F [Example 75, 3-(2,6-difluoro-3,5-dimethoxyphenyl)-1-[(1R,2R)-2-hydroxycyclopentyl]-3,4,7,9-tetrahydro-1H-pyrrolo[3′,2′:5,6]pyrido[4,3-d]pyrimidine-2,8-dione]	< 100 nM	< 100 nM	< 100 nM
COc1cc(OC)c(F)c(N2Cc3cnc4[nH]ccc4c3N(c3cccc(F)c3F)C2=O)c1F [Example 76, 3-(2,6-difluoro-3,5-dimethoxyphenyl)-1-(2,3-difluorophenyl)-1,3,4,7-tetrahydro-2H-pyrrolo[3′,2′:5,6]pyrido[4,3-d]pyrimidin-2-one]	< 100 nM	< 100 nM	< 100 nM
COc1cc(OC)c(F)c(N2Cc3cnc4[nH]ccc4c3N(Cc3ccccn3)C2=O)c1F [Example 78, 3-(2,6-difluoro-3,5-dimethoxyphenyl)-1-(pyridin-2-ylmethyl)-1,3,4,7-tetrahydro-2H-pyrrolo[3′,2′:5,6]pyrido[4,3-d]pyrimidin-2-one]	< 100 nM	< 100 nM	< 100 nM
COc1cc(OC)c(F)c(N2Cc3cnc4c(c3N(Cc3ccccn3)C2=O)CC(=O)N4)c1F [Example 79, 3-(2,6-difluoro-3,5-dimethoxyphenyl)-1-(pyridin-2-ylmethyl)-3,4,7,9-tetrahydro-1H-pyrrolo[3′,2′:5,6]pyrido[4,3-d]pyrimidine-2,8-dione]	< 100 nM	< 100 nM	< 100 nM
